Reference: article PMC11975176 (Clinical Pharmacology in Drug Development, 2025)
Where two headings read alike, the source gives them in different places.

Assays:
[1] = NA (ETV, TFV) plasma PK (NCA) with coadministered bepirovirsen in the Phase 2b B-Clear study; type: in vivo; details: human, oral; for concentration at 24 h: B-Clear, mean ± SD, read-out: Ctau; for AUC(0-t): read-out: AUC0-24
Description: NA plasma PK parameters were calculated using NCA methods with Phoenix WinNonlin Version 8.1.0.3530. PK parameters included Cmax, AUC from time zero to 24 hours after dosing, and plasma concentration at the end of the dosing interval. Calculations were based on the actual sampling times. PK samples in the B‐Clear study were assayed for bepirovirsen, ETV, and TFV in plasma at the bioanalytical facility Labcorp Drug Development, Shanghai, China, using validated liquid–liquid extraction for bepirovirsen, solid‐phase extraction for ETV, and protein precipitation for TFV assays followed by high‐performance liquid chromatography with mass spectrometric detection. All plasma samples were assayed within the established long‐term frozen, freeze/thaw, and processed extract stability.

[2] = cited from earlier work

SMILES	Cmax ([1]; 0.5 mg)	concentration at 24 h ([1]; 0.5 mg, ETV 0.5 mg once daily with bepirovirsen)	AUC(0-t) ([1]; 0.5 mg)	Cmax ([2]; in vivo, 0.5 mg)	tmax ([2]; in vivo)	Cmax ([1]; 25 mg)	AUC(0-t) ([1]; 25 mg)	Cmax ([1]; 300 mg)	AUC(0-t) ([1]; 300 mg)	concentration at 24 h ([1]; TFV administered as TAF 25 mg once daily with bepirovirsen)	concentration at 24 h ([1]; TFV administered as TDF 245 or 300 mg once daily with bepirovirsen)	tmax ([2]; after dosing)	AUC0-24 ([2]; in vivo, 25 mg)	Cmax ([2]; in vivo, 25 mg)	AUC0-24 ([2]; in vivo, 300 mg)
C=C1[C@H](CO)[C@@H](O)C[C@@H]1n1cnc2c(=O)[nH]c(N)nc21 [ETV, entecavir]	6.5 ± 2.3 ng/mL	0.5 ± 0.1 ng/mL	24.4 ± 6.8 ng·h/mL	4.2 ng/mL	approximately 1 hour										
C[C@H](Cn1cnc2c(N)ncnc21)OCP(=O)(O)O [TFV, tenofovir]						19.4 ± 5.9 ng/mL	308 ± 105 ng·h/mL	319 ± 95.9 ng/mL	2750 ± 661 ng·h/mL	10.3 ± 3.5 ng/mL	57 ± 17.1 ng/mL	approximately 1 hour	400 (35.2) ng•h/mL	30.0 (24.6) ng/mL	2290 ± 690 ng·h/mL
